Patent publication US20150105252A1, “SUBSTITUTED PYRAZOLES AS HERBICIDES” (E I DU PONT DE NEMOURS AND COMPANY, priority 2013, published 2015)

Tests used:
deadnettle [1] = assay: Test D preemergence; assay type: in vivo, Lamium amplexicaule; details: for Plant response rating (scale 0 to 100), Deadnettle: 16 g ai/ha, taken as preemergence; for Plant response rating, Deadnettle: Preemergence, scale 0 to 100
Description: (§1) Seeds of plant species selected from bluegrass (annual bluegrass, Poa annua), blackgrass (Alopecurus myosuroides), canarygrass (littleseed canarygrass, Phalaris minor), chickweed (common chickweed, Stellaria media), galium (catchweed bedstraw, Galium aparine), bromegrass, downy (downy bromegrass, Bromus tectorum), field poppy (Papaver rhoeas), field violet (Viola arvensis), foxtail, green (green foxtail, Setaria viridis), deadnettle (henbit deadnettle, Lamium amplexicaule), ryegrass, Italian (Italian ryegrass, Lolium multiflorum), kochia (Kochia scoparia), lambsquarters (Chenopodium album), oilseed rape (Brassica napus), pigweed (redroot pigweed, Amaranthus retroflexus), chamomile (scentless chamomile, Matricaria inodora), speedwell (bird's-eye speedwell, Veronica persica), barley, spring (spring barley, Hordeum vulgare), wheat, spring (spring wheat, Triticum aestivum), buckwheat, wild (wild buckwheat, Polygonum convolvulus), mustard, wild (wild mustard, Sinapis arvensis), oat, wild (wild oat, Avena fatua), radish, wild (wild radish, Raphanus raphanistrum), windgrass (Apera spica-venti), Russian thistle (Salsola kali), barley, winter (winter barley, Hordeum vulgare), and wheat, winter (winter wheat, Triticum aestivum) were planted into a silt loam soil and treated preemergence with test chemicals formulated in a non-phytotoxic solvent mixture which included a surfactant.
(§2) At the same time, these species were planted in pots containing Redi-Earth® planting medium (Scotts Company, 14111 Scottslawn Road, Marysville, Ohio 43041) comprising spaghnum peat moss, vermiculite, wetting agent and starter nutrients and treated with postemergence applications of the test chemicals formulated in the same manner. Plants ranged in height from 2 to 18 cm (1- to 4-leaf stage). Treated plants and controls were maintained in a controlled growth environment for 14 to 21 days after which time all species were compared to controls and visually evaluated. Plant response ratings, summarized in Table D, are based on a scale of 0 to 100 where 0 is no effect and 100 is complete control. A dash (-) response means no test result.

blackgrass = assay: Test D preemergence; assay type: in vivo, Alopecurus myosuroides; details: for Plant response rating (scale 0 to 100), Blackgrass: 16 g ai/ha, taken as preemergence; for Plant response rating, Blackgrass: Preemergence, scale 0 to 100
Description: as §1, §2

field poppy = assay: Test D preemergence; assay type: in vivo, Papaver rhoeas; details: for Plant response rating (scale 0 to 100), Field Poppy: 16 g ai/ha, taken as preemergence; for Plant response rating, Field Poppy: Preemergence, scale 0 to 100
Description: as §1, §2

kochia = assay: Test D postemergence; assay type: in vivo, Kochia scoparia; details: scale 0 to 100; for Plant response rating, Kochia: 16 g ai/ha
Description: as §1, §2

ryegrass, Italian = assay: Test D postemergence; assay type: in vivo, Lolium multiflorum; details: scale 0 to 100; for Plant response rating, Ryegrass, Italian: 16 g ai/ha
Description: as §1, §2

galium = assay: Test D postemergence; assay type: in vivo, Galium aparine; details: scale 0 to 100; for Plant response rating, Galium: 16 g ai/ha
Description: as §1, §2

deadnettle [2] = assay: Test D postemergence; assay type: in vivo, Lamium amplexicaule; details: scale 0 to 100; for Plant response rating, Deadnettle: 16 g ai/ha
Description: as §1, §2

bromegrass, downy [3] = assay: Test D preemergence; assay type: in vivo, Bromus tectorum; details: for Plant response rating (scale 0 to 100), Bromegrass, Downy: 16 g ai/ha, taken as preemergence; for Plant response rating, Bromegrass, Downy: Preemergence, scale 0 to 100
Description: as §1, §2

pigweed = assay: Test D postemergence; assay type: in vivo, Amaranthus retroflexus; details: scale 0 to 100; for Plant response rating, Pigweed: 16 g ai/ha
Description: as §1, §2

foxtail, green = assay: Test D postemergence; assay type: in vivo, Setaria viridis; details: scale 0 to 100; for Plant response rating, Foxtail, Green: 16 g ai/ha
Description: as §1, §2

bromegrass, downy [4] = assay: Test D postemergence; assay type: in vivo, Bromus tectorum; details: scale 0 to 100; for Plant response rating, Bromegrass, Downy: 16 g ai/ha
Description: as §1, §2

lambsquarters = assay: Test D postemergence; assay type: in vivo, Chenopodium album; details: scale 0 to 100; for Plant response rating, Lambsquarters: 16 g ai/ha
Description: as §1, §2

With Cc1cc(C(=O)NCC(F)(F)F)nn1Cc1ccnc(C(F)(F)F)c1 [Compound 74] the “Plant response rating (scale 0 to 100), Deadnettle” value (deadnettle [1]) was 0, the “Plant response rating, Deadnettle” value (deadnettle [1]; 31 g ai/ha) was 5 and the “Plant response rating, Deadnettle” value (deadnettle [1]; 62 g ai/ha) was 10. For the same compound, the “Plant response rating, Deadnettle” value (deadnettle [1]; 125 g ai/ha) was 20, the “Plant response rating (scale 0 to 100), Blackgrass” value (blackgrass) was 0 and the “Plant response rating, Blackgrass” value (blackgrass; 31 g ai/ha) was 0. The “Plant response rating, Blackgrass” value (blackgrass; 62 g ai/ha) was 10, the “Plant response rating, Blackgrass” value (blackgrass; 125 g ai/ha) was 15 and the “Plant response rating (scale 0 to 100), Field Poppy” value (field poppy) was 50. The “Plant response rating, Field Poppy” value (field poppy; 31 g ai/ha) was 80, the “Plant response rating, Field Poppy” value (field poppy; 62 g ai/ha) was 95 and the “Plant response rating, Field Poppy” value (field poppy; 125 g ai/ha) was 100. For the same compound, the “Plant response rating, Kochia” value (kochia; Postemergence) was 15, the “Kochia plant response rating” value (kochia; Postemergence, 31 g ai/ha) was 25 and the “Kochia plant response rating” value (kochia; Postemergence, 125 g ai/ha) was 65. The “Kochia plant response rating” value (kochia; postemergence, 62 g ai/ha) was 35, the “Plant response rating, Ryegrass, Italian” value (ryegrass, Italian; Postemergence) was 0 and the “Ryegrass, Italian plant response rating” value (ryegrass, Italian; Postemergence, 31 g ai/ha) was 5. For the same compound, the “Ryegrass, Italian plant response rating” value (ryegrass, Italian; Postemergence, 125 g ai/ha) was 10, the “Ryegrass, Italian plant response rating” value (ryegrass, Italian; postemergence, 62 g ai/ha) was 5 and the “Plant response rating, Galium” value (galium; Postemergence) was 10. The “Galium plant response rating” value (galium; Postemergence, 31 g ai/ha) was 20, the “Galium plant response rating” value (galium; Postemergence, 125 g ai/ha) was 70 and the “Galium plant response rating” value (galium; postemergence, 62 g ai/ha) was 40. For the same compound, the “Plant response rating, Deadnettle” value (deadnettle [2]; Postemergence) was 10, the “Deadnettle plant response rating” value (deadnettle [2]; Postemergence, 31 g ai/ha) was 15 and the “Deadnettle plant response rating” value (deadnettle [2]; Postemergence, 125 g ai/ha) was 30. For the same compound, the “Deadnettle plant response rating” value (deadnettle [2]; postemergence, 62 g ai/ha) was 20, the “Plant response rating (scale 0 to 100), Bromegrass, Downy” value (bromegrass, downy [3]) was 0 and the “Plant response rating, Bromegrass, Downy” value (bromegrass, downy [3]; 31 g ai/ha) was 0. For the same compound, the “Plant response rating, Bromegrass, Downy” value (bromegrass, downy [3]; 62 g ai/ha) was 5, the “Plant response rating, Bromegrass, Downy” value (bromegrass, downy [3]; 125 g ai/ha) was 0 and the “Plant response rating, Pigweed” value (pigweed; Postemergence) was 65. For the same compound, the “Pigweed plant response rating” value (pigweed; Postemergence, 31 g ai/ha) was 50, the “Pigweed plant response rating” value (pigweed; Postemergence, 125 g ai/ha) was 65 and the “Pigweed plant response rating” value (pigweed; postemergence, 62 g ai/ha) was 65. The “Plant response rating, Foxtail, Green” value (foxtail, green; Postemergence) was 0, the “Foxtail, Green plant response rating” value (foxtail, green; Postemergence, 31 g ai/ha) was 10 and the “Foxtail, Green plant response rating” value (foxtail, green; Postemergence, 125 g ai/ha) was 40. For the same compound, the “Foxtail, Green plant response rating” value (foxtail, green; postemergence, 62 g ai/ha) was 15, the “Plant response rating, Bromegrass, Downy” value (bromegrass, downy [4]; Postemergence) was 0 and the “Bromegrass, Downy plant response rating” value (bromegrass, downy [4]; Postemergence, 31 g ai/ha) was 0. The “Bromegrass, Downy plant response rating” value (bromegrass, downy [4]; Postemergence, 125 g ai/ha) was 0, the “Bromegrass, Downy plant response rating” value (bromegrass, downy [4]; postemergence, 62 g ai/ha) was 0 and the “Plant response rating, Lambsquarters” value (lambsquarters; Postemergence) was 70. For the same compound, the “Lambsquarters plant response rating” value (lambsquarters; Postemergence, 31 g ai/ha) was 70, the “Lambsquarters plant response rating” value (lambsquarters; Postemergence, 125 g ai/ha) was 85 and the “Lambsquarters plant response rating” value (lambsquarters; postemergence, 62 g ai/ha) was 75.
In the case of CCc1cc(C(=O)NC2CC2)nn1Cc1ccnc(C(F)(F)F)c1 [Compound 76], the “Plant response rating (scale 0 to 100), Deadnettle” value (deadnettle [1]) is reported as 0, the “Plant response rating, Deadnettle” value (deadnettle [1]; 31 g ai/ha) is reported as 50 and the “Plant response rating, Deadnettle” value (deadnettle [1]; 62 g ai/ha) is reported as 100. For the same compound, the “Plant response rating, Deadnettle” value (deadnettle [1]; 125 g ai/ha) was 100, the “Plant response rating, Deadnettle” value (deadnettle [1]; 250 g ai/ha) was 100 and the “Plant response rating (scale 0 to 100), Blackgrass” value (blackgrass) was 20. The “Plant response rating, Blackgrass” value (blackgrass; 31 g ai/ha) was 50, the “Plant response rating, Blackgrass” value (blackgrass; 62 g ai/ha) was 100 and the “Plant response rating, Blackgrass” value (blackgrass; 125 g ai/ha) was 100. The “Plant response rating, Blackgrass” value (blackgrass; 250 g ai/ha) was 100, the “Plant response rating (scale 0 to 100), Field Poppy” value (field poppy) was 95 and the “Plant response rating, Field Poppy” value (field poppy; 31 g ai/ha) was 100. For the same compound, the “Plant response rating, Field Poppy” value (field poppy; 62 g ai/ha) was 100, the “Plant response rating, Field Poppy” value (field poppy; 125 g ai/ha) was 100 and the “Plant response rating, Field Poppy” value (field poppy; 250 g ai/ha) was 100. For the same compound, the “Plant response rating, Kochia” value (kochia; Postemergence) was 25, the “Kochia plant response rating” value (kochia; Postemergence, 31 g ai/ha) was 40 and the “Kochia plant response rating” value (kochia; Postemergence, 125 g ai/ha) was 60. For the same compound, the “Kochia plant response rating” value (kochia; Postemergence, 250 g ai/ha) was 75, the “Kochia plant response rating” value (kochia; postemergence, 62 g ai/ha) was 50 and the “Plant response rating, Ryegrass, Italian” value (ryegrass, Italian; Postemergence) was 0. The “Ryegrass, Italian plant response rating” value (ryegrass, Italian; Postemergence, 31 g ai/ha) was 0, the “Ryegrass, Italian plant response rating” value (ryegrass, Italian; Postemergence, 125 g ai/ha) was 5 and the “Ryegrass, Italian plant response rating” value (ryegrass, Italian; Postemergence, 250 g ai/ha) was 10. For the same compound, the “Ryegrass, Italian plant response rating” value (ryegrass, Italian; postemergence, 62 g ai/ha) was 5, the “Plant response rating, Galium” value (galium; Postemergence) was 55 and the “Galium plant response rating” value (galium; Postemergence, 31 g ai/ha) was 70. For the same compound, the “Galium plant response rating” value (galium; Postemergence, 125 g ai/ha) was 75, the “Galium plant response rating” value (galium; Postemergence, 250 g ai/ha) was 95 and the “Galium plant response rating” value (galium; postemergence, 62 g ai/ha) was 75. The “Plant response rating, Deadnettle” value (deadnettle [2]; Postemergence) was 15, the “Deadnettle plant response rating” value (deadnettle [2]; Postemergence, 31 g ai/ha) was 25 and the “Deadnettle plant response rating” value (deadnettle [2]; Postemergence, 125 g ai/ha) was 50. The “Deadnettle plant response rating” value (deadnettle [2]; Postemergence, 250 g ai/ha) was 70, the “Deadnettle plant response rating” value (deadnettle [2]; postemergence, 62 g ai/ha) was 40 and the “Plant response rating (scale 0 to 100), Bromegrass, Downy” value (bromegrass, downy [3]) was 0. For the same compound, the “Plant response rating, Bromegrass, Downy” value (bromegrass, downy [3]; 31 g ai/ha) was 0, the “Plant response rating, Bromegrass, Downy” value (bromegrass, downy [3]; 62 g ai/ha) was 0 and the “Plant response rating, Bromegrass, Downy” value (bromegrass, downy [3]; 125 g ai/ha) was 5. The “Plant response rating, Bromegrass, Downy” value (bromegrass, downy [3]; 250 g ai/ha) was 65, the “Plant response rating, Pigweed” value (pigweed; Postemergence) was 50 and the “Pigweed plant response rating” value (pigweed; Postemergence, 31 g ai/ha) was 55. The “Pigweed plant response rating” value (pigweed; Postemergence, 125 g ai/ha) was 80, the “Pigweed plant response rating” value (pigweed; Postemergence, 250 g ai/ha) was 80 and the “Pigweed plant response rating” value (pigweed; postemergence, 62 g ai/ha) was 65. The “Plant response rating, Foxtail, Green” value (foxtail, green; Postemergence) was 5, the “Foxtail, Green plant response rating” value (foxtail, green; Postemergence, 31 g ai/ha) was 35 and the “Foxtail, Green plant response rating” value (foxtail, green; Postemergence, 125 g ai/ha) was 55. For the same compound, the “Foxtail, Green plant response rating” value (foxtail, green; Postemergence, 250 g ai/ha) was 85, the “Foxtail, Green plant response rating” value (foxtail, green; postemergence, 62 g ai/ha) was 15 and the “Plant response rating, Bromegrass, Downy” value (bromegrass, downy [4]; Postemergence) was 0. For the same compound, the “Bromegrass, Downy plant response rating” value (bromegrass, downy [4]; Postemergence, 31 g ai/ha) was 0, the “Bromegrass, Downy plant response rating” value (bromegrass, downy [4]; Postemergence, 125 g ai/ha) was 10 and the “Bromegrass, Downy plant response rating” value (bromegrass, downy [4]; Postemergence, 250 g ai/ha) was 15. For the same compound, the “Bromegrass, Downy plant response rating” value (bromegrass, downy [4]; postemergence, 62 g ai/ha) was 5, the “Plant response rating, Lambsquarters” value (lambsquarters; Postemergence) was 65 and the “Lambsquarters plant response rating” value (lambsquarters; Postemergence, 31 g ai/ha) was 70. For the same compound, the “Lambsquarters plant response rating” value (lambsquarters; Postemergence, 125 g ai/ha) was 95, the “Lambsquarters plant response rating” value (lambsquarters; Postemergence, 250 g ai/ha) was 100 and the “Lambsquarters plant response rating” value (lambsquarters; postemergence, 62 g ai/ha) was 75.
